Data taken from ChEMBL document CHEMBL3779770, “Synthesis, biological evaluation and molecular docking study of some novel indole and pyridine based 1,3,4-oxadiazole derivatives as potential antitubercular agents” (Bioorg Med Chem Lett, 2016).
In brackets after ≈: the same amount, converted by molar mass.

Columns and labels:
[1] = system: Mycobacterium tuberculosis variant bovis BCG; test: Antitubercular activity against dormant state Mycobacterium bovis BCG ATCC 35734 assessed as viable cells after 12 days by nitrate reductase assay; type: functional, organism-based; details: ATCC 35734, 288 h
[2] = system: Mycobacterium tuberculosis variant bovis BCG; test: Antitubercular activity against active state Mycobacterium bovis BCG ATCC 35734 assessed as viable cells after 8 days by nitrate reductase assay; type: functional, organism-based; details: ATCC 35734, 192 h

| Structure (SMILES) | IC50 [1] [µg/mL] | MIC [1] [µg/mL] | IC50 [2] [µg/mL] | MIC [2] [µg/mL] |
| --- | --- | --- | --- | --- |
| O=C(/C=C\c1cccc(O)c1)N1N=C(c2ccncc2)OC1c1c[nH]c2ccccc12 (stereo not drawn) | > 30 | > 30 | > 30 | > 30 |
| O=C(/C=C\c1ccc(O)cc1)N1N=C(c2ccncc2)OC1c1c[nH]c2ccccc12 (stereo not drawn) | 27.9 (≈ 68 µM) | > 30 | 28.8 (≈ 70.2 µM) | > 30 |
| COc1ccc(/C=C\C(=O)N2N=C(c3ccncc3)OC2c2c[nH]c3ccccc23)cc1 (stereo not drawn) | > 30 | > 30 | > 30 | > 30 |
| O=C(/C=C\c1ccccc1Cl)N1N=C(c2ccncc2)OC1c1c[nH]c2ccccc12 (stereo not drawn) | > 30 | > 30 | > 30 | > 30 |
| O=C(/C=C\c1ccc(F)cc1)N1N=C(c2ccncc2)OC1c1c[nH]c2ccccc12 (stereo not drawn) | > 30 | > 30 | > 30 | > 30 |
| O=C(/C=C\c1cccc([N+](=O)[O-])c1)N1N=C(c2ccncc2)OC1c1c[nH]c2ccccc12 (stereo not drawn) | > 30 | > 30 | > 30 | > 30 |
| O=C(/C=C\c1cccc(Br)c1)N1N=C(c2ccncc2)OC1c1c[nH]c2ccccc12 (stereo not drawn) | 21.7 (≈ 45.9 µM) | > 30 | > 30 | > 30 |
| O=C(/C=C/c1c(Cl)cccc1Cl)N1N=C(c2ccncc2)OC1c1c[nH]c2ccccc12 (stereo not drawn) | 19.2 (≈ 41.5 µM) | > 30 | > 30 | > 30 |
| Cc1ccc(/C=C\C(=O)N2N=C(c3ccncc3)OC2c2c[nH]c3ccccc23)cc1 (stereo not drawn) | > 30 | > 30 | > 30 | > 30 |
| O=C(/C=C\c1ccc([N+](=O)[O-])cc1)N1N=C(c2ccncc2)OC1c1c[nH]c2ccccc12 (stereo not drawn) | 1.37 (≈ 3.12 µM) | 2.37 (≈ 5.39 µM) | 1.42 (≈ 3.23 µM) | 2.5 (≈ 5.69 µM) |
| O=C(/C=C\c1cccc(Cl)c1Cl)N1N=C(c2ccncc2)OC1c1c[nH]c2ccccc12 (stereo not drawn) | > 30 | > 30 | > 30 | > 30 |
| O=C(/C=C\c1ccccc1O)N1N=C(c2ccncc2)OC1c1c[nH]c2ccccc12 (stereo not drawn) | 0.68 (≈ 1.66 µM) | 1.19 (≈ 2.9 µM) | 0.46 (≈ 1.12 µM) | 0.94 (≈ 2.29 µM) |
| O=C(/C=C\c1ccccc1)N1N=C(c2ccncc2)OC1c1c[nH]c2ccccc12 (stereo not drawn) | 11.2 (≈ 28.5 µM) | > 30 | 12.3 (≈ 31.3 µM) | > 30 |
| O=C(/C=C\c1ccc(Cl)cc1)N1N=C(c2ccncc2)OC1c1c[nH]c2ccccc12 (stereo not drawn) | > 30 | > 30 | > 30 | > 30 |
| O=C(/C=C\c1ccccc1F)N1N=C(c2ccncc2)OC1c1c[nH]c2ccccc12 (stereo not drawn) | > 30 | > 30 | > 30 | > 30 |
| O=C(/C=C\c1ccc(Br)cc1)N1N=C(c2ccncc2)OC1c1c[nH]c2ccccc12 (stereo not drawn) | > 30 | > 30 | > 30 | > 30 |
| O=C(/C=C\c1ccc(Cl)cc1Cl)N1N=C(c2ccncc2)OC1c1c[nH]c2ccccc12 (stereo not drawn) | 1.5 (≈ 3.24 µM) | 4.97 (≈ 10.7 µM) | 2.93 (≈ 6.32 µM) | 5.17 (≈ 11.2 µM) |
| O=C(/C=C\c1cccc(F)c1)N1N=C(c2ccncc2)OC1c1c[nH]c2ccccc12 (stereo not drawn) | 20.4 (≈ 49.5 µM) | > 30 | 19.5 (≈ 47.4 µM) | > 30 |
| O=C(/C=C\c1cccc(Cl)c1)N1N=C(c2ccncc2)OC1c1c[nH]c2ccccc12 (stereo not drawn) | > 30 | > 30 | > 30 | > 30 |
| O=C(/C=C\c1ccccc1[N+](=O)[O-])N1N=C(c2ccncc2)OC1c1c[nH]c2ccccc12 (stereo not drawn) | 0.36 (≈ 0.819 µM) | 0.85 (≈ 1.93 µM) | 0.48 (≈ 1.09 µM) | 1.03 (≈ 2.34 µM) |
| NNC(=O)c1ccncc1 [ISONIAZID] | 0.0017 (≈ 0.0124 µM) | 0.037 (≈ 0.27 µM) | 0.0012 (≈ 0.00875 µM) | 0.033 (≈ 0.241 µM) |
| CO[C@H]1/C=C/O[C@@]2(C)Oc3c(C)c(O)c4c(O)c(c(/C=N/N5CCN(C)CC5)c(O)c4c3C2=O)NC(=O)/C(C)=C\C=C\[C@H](C)[C@H](O)[C@@H](C)[C@@H](O)[C@@H](C)[C@H](OC(C)=O)[C@@H]1C [RIFAMPIN] | 0.0015 (≈ 0.00182 µM) | 0.017 (≈ 0.0207 µM) | 0.0012 (≈ 0.00146 µM) | 0.015 (≈ 0.0182 µM) |
